# Patent US20240226041A1, “METHODS AND COMPOSITIONS FOR TREATMENT OF NEUROPATHIC PAIN USING STAT3 INHIBITORS” (priority 2021, published 2024)
# Assays:
# STAT3βtr = target: T1, STAT3βtr (Homo sapiens, UniProt P40763); test: STAT3 alkylation study, targeted LC-MS/MS (MRM, QTrap 5500) of tryptic digests; type: biochemical; details: for number of STAT3βtr peptides alkylated: natively folded STAT3βtr, conditions optimal for alkylation, LC-MS/MS of tryptic digest
# T1 construct: STAT3 (127-722) cDNA was cloned into a pET15b vector; made in house; host or cells: E. coli BL21 (DE), pET15b
# Excerpt: To examine if this was a possibility, recombinant STAT3 was generated post-translationally unmodified in bacteria using a cDNA construct in which the domain containing the N-terminal oligomerization domain was deleted (STAT3βtr); this domain is not necessary for native folding of the core domains of STAT3 (CCD, DBD, linker domain, and SH2 domain) and its removal markedly improves recombinant STAT3 protein solubility. STAT3βtr contains 11 Cys residues. To determine how many of these Cys residues are available to be alkylated when soluble protein is natively folded, we incubated STAT3βtr with two protein alkylating agents, iodoacetamide and N-ethylmaleimide (NEM) under conditions optimal for alkylation (FIG. 11A-11B). […] The identity of the peptides were confirmed by performing full MS/MS spectra on the detected transitions. […] Five of the peptides contained a single alkylated Cys, while one of the peptides contained two alkylated Cys residues.
# Expression and purification of recombinant STAT3. STAT3 (127-722) cDNA was cloned into a pET15b vector and transformed in BL21 (DE) (Life Technologies, Inc. Woburn, MA) Expression of the recombinant protein was inducing by 0.5 mM IPTG, at 20° C. for 5 hr. The recombinant STAT3 protein was purified by ammonium sulfate precipitation followed by an ion exchange step with HiTrap Q columns (GE Healthcare Bio-Sciences, Uppsala Sweden) and size exclusion chromatography to achieve purity of over 98%.
# (§1) STAT3 alkylation studies. Purified recombinant core fragment of STAT3β protein in ammonium bicarbonate buffer (10 μM) was mixed with each compound at a final concentration of 100 μM. The protein mixture was then incubated at 37° C. overnight. Samples were reduced with 5 mM DTT at 37 °C for one hour and further alkylated with iodoacetamide (15 mM) for 30 minutes at RT in the dark, followed by digestion with trypsin gold in a dry incubator at 37° C. overnight. Formic acid was added the next day to 5% and each protein sample was diluted in 5 mM ammonium acetate containing 0.5% formic acid immediately prior to analysis by Targeted Mass Spectrometry Multiple Reaction Monitoring (MRM).
# LC-MS/MS. A QTRAP 5500 Sciex hybrid quadrupole-linear ion trap system with a TurboIonSpray ion source in positive mode and equipped with a Sciex LC Exion liquid chromatography system was used to analyze tryptic digests of STAT3 protein samples treated with STAT3 inhibitors. Fractionation of the samples was done using a Waters Symmetry C18 column (100 Å, 3.5 μm, 4.6 mm×150 mm) and a 30 min linear gradient of acetonitrile with 0.1% formic acid at a flow rate of 300 uL/min. A transition list of cysteine-containing peptides with expected drug-cysteine adducts were generated in Skyline software and exported to the QTRAP mass spectrometer to developed acquisition methods. Resultant raw data files generated in the QTRAP were imported back into Skyline for analysis and additional processing.
# STAT3 = target: T2, STAT3 (Homo sapiens, UniProt P40763); test: STAT3 alkylation study, high resolution LC-MS/MS for unknown chemical adducts; type: biochemical; details: vs. STAT3 incubated with DMSO
# T2 construct: STAT3 (127-722) cDNA was cloned into a pET15b vector; made in house; host or cells: E. coli BL21 (DE), pET15b
# Procedure: FIGS. 11A-11C show alkylation of STAT3βtr by iodoacetamide and NEM. […] The dotted line indicates the cutoff for a significant Z-score.
# as §1, with “Formic acid was added the next day to 5% and each protein sample was diluted in 5 mM ammonium acetate containing 0.5% formic acid immediately prior to analysis by Targeted Mass Spectrometry Multiple Reaction Monitoring (MRM).” left out
# High resolution LC/MS. An aliquot of the tryptic digests of STAT3 proteins treated with DMSO (control) and those treated with Stattic and TTI101 were analyzed by LC-MS/MS on an Ultimate 3000 RSLC-Nano chromatograph interfaced to an Orbitrap Fusion high-resolution mass spectrometer (Thermo Scientific, Waltham MA). All MS/MS data were analyzed using Sequest-HT (Thermo Scientific). […] To access for potential unknown modifications, the data was analyzed in MaxQuant using the dependent peptide search option (Tyanova, Temu & Cox, 2016). All peptides output list was analyzed by comparing Stattic, TTI101 and TTI101ox with DMSO treated samples as described in (Antinori, Michelot, Lescuyer, Müller & Acosta-Martin, 2019).
# DU-145 cells = test: Seahorse XF Cell Mito Stress Test, oxygen consumption rate (OCR); type: cell-based, human
# Procedure: FIGS. 1A-1C show the effects of STAT3 inhibitors on mitochondrial function. DU-145 cells were treated with the indicated STAT3 inhibitors at 30 μM for 2 Hrs.
# DU-145 cells were treated with STAT3 inhibitors at 10-30 μM for 2 Hrs. Data are representative of 4 or more independent experiments.
# ATP production, maximal respiration, proton leak, and spare respiratory capacity. […] Similarly.
# Mitochondrial assays. DU-145 cells (2.5×10^4) were seeded per well in a XF24 plate and incubated at 37° C./5% CO2 in complete RPMI medium. After 12 Hrs complete medium was replaced with nutrient depleted four-day culture media: conditioned media (CM) and incubated for 4 Hrs. Cells were then treated for another 2 Hrs with STAT3 inhibitors prior to analysis using a Seahorse XF24 Analyzer. The Oxygen Consumption Rate (OCR) was measured in DMEM XF base medium containing 10 mM glucose and 2 mM glutamine and 1 mM pyruvate, before and after the sequential injection of oligomycin, FCCP and rotenone/antimycin A to final concentrations of 1 μM, 1 μM and 0.5 μM respectively. Basal and maximal respiration values were estimate by subtraction of OCR value after treatment of cells with rotenone and antimycin A (which reflects non-mitochondrial respiration) from OCR values in cells treated with oligomycin and FCCP respectively.
# [1] = Glutathione reaction study (UV-HPLC stability with GSH); type: physicochemical
# Procedure: The AUC of each compound measured at the times indicated by UV-HPLC and expressed as percent of the starting AUC of the peaks. Data are representative of four independently performed experiments.
# Each reaction mixture was sampled at time 0 and every 5 minutes for 50 minutes; all samples were analyzed by HPLC. The amount of unreacted inhibitor was determined by measuring the area under the curve (AUC) and plotting this value as a percentage of the starting AUC as a function of time (FIG. 3). […] In contrast, there was no loss of TTI-101 in the presence of GSH.
# Glutathione reaction studies. STAT3 inhibitors (10 ul of 10 mM stock in DMSO) were spiked into reaction buffer [50 mM HEPES pH7.5 containing 10 mM reduced glutathione (GSH)] the samples were mixed thoroughly and placed in an autosampler set at 20° C. The reactions were monitored by high performance liquid chromatography (HPLC) using an Exion LC Sciex unit equipped with a UV detector. The stationary phase used was a C18 Synergi™ 4 μm Fusion-RP 80 Å LC column (50×2 mm); the mobile phase was water (A) and acetonitrile (B). The elution process consisted of an isocratic step with 20% mobile phase B, followed by 80% B, for 2 minutes. The flow rate was maintained at 0.5 mL/min during the run. Measurements were conducted at intervals of 5 minutes for a period of 55 minutes total. The presence of the STAT3 inhibitors were quantified by calculating the area under the curves (AUCs) of the compound peaks at 260-295 nm.
# male C57BL/6 mice [2] = test: Cisplatin model of chemotherapy-induced peripheral neuropathy (CIPN), von Frey mechanical allodynia; type: in vivo, mouse; details: two cycles of 5 daily doses of 2.3 mg/kg followed by 5 days rest
# Procedure: Data were analyzed by two-way ANOVA repeated measures. Time: P<0.001; Group: P<0.001; Interaction P<0.001. **P<0.01 Tukey multiple comparison test. Data are from a representative experiment out of two with similar results.
# Male C57/B16 mice (n=4 per group) were treated with cisplatin (two rounds of 5 daily doses of 2.3 mg/kg i.p. followed by 5 days of rest). […] Data were analyzed by two-way ANOVA repeated measures. Time: P<0.001; Group: P<0.001; Interaction P<0.01. **P<0.01 Tukey multiple comparison test.
# Peripheral neuropathy has been observed with several small-molecule STAT3 inhibitors in clinical-stage development (Bendell et al., 2014; Genini et al., 2017; Ogura et al., 2015). […] This model was selected because it was shown previously that it is mediated by mitochondrial damage in the peripheral nervous system (Krukowski et al., 2017; Maj, Ma, Krukowski, Kavelaars & Heijnen, 2017). […] (FIG. 12).
# Pain measurements and chemotherapy-induced peripheral neuropathy (CIPN).
# DRG transcriptome = test: RNA-seq and IPA analysis of dorsal root ganglia of cisplatin-treated mice; type: in vivo, mouse; details: cisplatin vs. PBS
# Excerpt: Expression of 1,973 genes was changed in response to cisplatin when compared to the PBS mice (PBS vs. Cis; n=3 male mice per group). […] A cutoff of (−0.2<log 2 Fold Change <0.2) and p=0.1 was used for the analysis. […] Gray indicates effect cannot be predicted.
# The mechanistic network of four regulators identified STAT3 as an intermediate regulator. […] For example, for the TP53 network, 14 regulators were part of the mechanistic network which together influence expression of 481 genes and out of these 481 genes, 64 target genes are controlled by STAT3.
# RNA-seq and transcriptome analysis of dorsal root ganglion (DRG). […] Total RNA was isolated with the RNeasy MinElute Cleanup Kit (Qiagen, Hilden, Germany). Libraries were prepared with the Stranded mRNA-Seq kit (Kapa Biosystems, Wilmington, MA) following the manufacturer's guidelines. Stranded-mRNA seq was performed with a HiSeq4000 Sequencer (Illumina, San Diego, CA) with 76nt PE format by the RNA Sequencing Core at MD Anderson Cancer Center. Data analysis was performed as previously described (Chiu et al., 2018; Ma et al., 2019). Briefly, expression data of three samples per group were analyzed in R using bioconductor packages. STAR was used for alignment of paired-end reads to the mm10 version of the mouse reference genome; feature Counts was used to assign mapped sequence reads to genomic features, and DESeq2 was used to identify differentially expressed genes (padj<0.05). Quality check of raw and aligned reads was performed with FastQC and Qualimap. Next, we used Ingenuity Pathway Analysis (IPA; Qiagen Inc., https://www.qiagenbioinformatics.com/products/ingenuity-pathway-analysis/) for analysis of the canonical pathways implicated by cisplatin-induced transcriptome changes in DRG.
# male C57BL/6 mice [3] = details: Krukowski et al., 2017; cited from earlier work
# T1 sequence (P40763 127-722 isoform P40763-3): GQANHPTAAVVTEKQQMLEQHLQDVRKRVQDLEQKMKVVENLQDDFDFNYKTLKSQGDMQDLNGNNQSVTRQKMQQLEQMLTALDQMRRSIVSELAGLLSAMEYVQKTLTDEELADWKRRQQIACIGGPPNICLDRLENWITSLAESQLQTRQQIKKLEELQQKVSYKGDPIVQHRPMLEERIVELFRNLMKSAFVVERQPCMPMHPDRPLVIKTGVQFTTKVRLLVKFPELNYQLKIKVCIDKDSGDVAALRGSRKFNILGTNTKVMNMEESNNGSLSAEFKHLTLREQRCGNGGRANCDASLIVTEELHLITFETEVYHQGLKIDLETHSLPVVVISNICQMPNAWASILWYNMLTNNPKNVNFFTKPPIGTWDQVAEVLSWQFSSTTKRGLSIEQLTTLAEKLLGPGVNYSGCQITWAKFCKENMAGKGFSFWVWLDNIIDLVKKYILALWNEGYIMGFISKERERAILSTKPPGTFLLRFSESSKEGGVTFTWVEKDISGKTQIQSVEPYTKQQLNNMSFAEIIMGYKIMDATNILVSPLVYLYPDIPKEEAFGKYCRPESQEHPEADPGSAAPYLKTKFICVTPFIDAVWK
# T2 sequence (P40763 127-722 isoform P40763-3): as above
structure (smiles),measurement,setting,value
"CCN1C(=O)C=CC1=O [NEM, N-ethylmaleimide]",number of STAT3βtr peptides alkylated,STAT3βtr,6 peptides
O=[N+]([O-])c1ccc2c(c1)S(=O)(=O)C=C2 [Stattic],"chemical adducts / mass shifts of STAT3 peptides, untargeted high resolution LC-MS/MS",STAT3,adducts were detected
same,OCR curves compared to DMSO control,"DU-145 cells; 2 Hrs, 10 and 30 μM (3-fold and 10-fold TTI-101 IC50)",did not consistently alter the OCR curves
same,unreacted inhibitor level (AUC) as percent of baseline in the presence of GSH,"[1]; 100 μM in 50 mM HEPES pH 7.5, 10 mM GSH, within 5 minutes",< 10%
same,inhibitor level in the absence of GSH,[1]; without GSH,remaining constant
same,"adducts on Cys containing STAT3 peptides (alkylation), targeted LC-MS/MS","STAT3βtr; STAT3βtr 10 μM, compound 100 μM, 37° C. overnight",covalent modification of STAT3
same,"alkylated peptides, targeted and untargeted LC-MS/MS","STAT3βtr; STAT3βtr tryptic digests, Qtrap 5500 and Orbitrap, FIGS. 4A-4C (Stattic)",eight
"N.N.[Cl][Pt][Cl] [cisplatin, reference compound]",induction of mechanical allodynia,male C57BL/6 mice [2],induces mechanical allodynia
same,VEGF signaling (IPA comparison analysis),DRG transcriptome,predicted activation of VEGF signaling
same,genes down in DRG,DRG transcriptome,675 genes
same,genes up in DRG,DRG transcriptome,"1,298 genes"
same,genes with changed expression in DRG,DRG transcriptome,"1,973 genes"
same,duration of induced mechanical allodynia,male C57BL/6 mice [3],at least 75 days
C[C@H]1COC2=C1C(=O)C(=O)c1c2ccc2c1CCCC2(C)C [cryptotanshinone],reduction in ATP level production,DU-145 cells; 30 μM,50%
NC(=O)CI [iodoacetamide],number of STAT3βtr peptides alkylated,STAT3βtr,6 peptides
